Experimental data as given in article PMC6210072 (ACS Omega, 2018).

Assays:
PARP2 = PARP2 (Homo sapiens, UniProt Q9UGN5); type: biochemical
ROCK2 = ROCK2 (Homo sapiens, UniProt O75116); type: biochemical; conditions: read-out: ROCK2
ROCK2, sequence (O75116 whole entry): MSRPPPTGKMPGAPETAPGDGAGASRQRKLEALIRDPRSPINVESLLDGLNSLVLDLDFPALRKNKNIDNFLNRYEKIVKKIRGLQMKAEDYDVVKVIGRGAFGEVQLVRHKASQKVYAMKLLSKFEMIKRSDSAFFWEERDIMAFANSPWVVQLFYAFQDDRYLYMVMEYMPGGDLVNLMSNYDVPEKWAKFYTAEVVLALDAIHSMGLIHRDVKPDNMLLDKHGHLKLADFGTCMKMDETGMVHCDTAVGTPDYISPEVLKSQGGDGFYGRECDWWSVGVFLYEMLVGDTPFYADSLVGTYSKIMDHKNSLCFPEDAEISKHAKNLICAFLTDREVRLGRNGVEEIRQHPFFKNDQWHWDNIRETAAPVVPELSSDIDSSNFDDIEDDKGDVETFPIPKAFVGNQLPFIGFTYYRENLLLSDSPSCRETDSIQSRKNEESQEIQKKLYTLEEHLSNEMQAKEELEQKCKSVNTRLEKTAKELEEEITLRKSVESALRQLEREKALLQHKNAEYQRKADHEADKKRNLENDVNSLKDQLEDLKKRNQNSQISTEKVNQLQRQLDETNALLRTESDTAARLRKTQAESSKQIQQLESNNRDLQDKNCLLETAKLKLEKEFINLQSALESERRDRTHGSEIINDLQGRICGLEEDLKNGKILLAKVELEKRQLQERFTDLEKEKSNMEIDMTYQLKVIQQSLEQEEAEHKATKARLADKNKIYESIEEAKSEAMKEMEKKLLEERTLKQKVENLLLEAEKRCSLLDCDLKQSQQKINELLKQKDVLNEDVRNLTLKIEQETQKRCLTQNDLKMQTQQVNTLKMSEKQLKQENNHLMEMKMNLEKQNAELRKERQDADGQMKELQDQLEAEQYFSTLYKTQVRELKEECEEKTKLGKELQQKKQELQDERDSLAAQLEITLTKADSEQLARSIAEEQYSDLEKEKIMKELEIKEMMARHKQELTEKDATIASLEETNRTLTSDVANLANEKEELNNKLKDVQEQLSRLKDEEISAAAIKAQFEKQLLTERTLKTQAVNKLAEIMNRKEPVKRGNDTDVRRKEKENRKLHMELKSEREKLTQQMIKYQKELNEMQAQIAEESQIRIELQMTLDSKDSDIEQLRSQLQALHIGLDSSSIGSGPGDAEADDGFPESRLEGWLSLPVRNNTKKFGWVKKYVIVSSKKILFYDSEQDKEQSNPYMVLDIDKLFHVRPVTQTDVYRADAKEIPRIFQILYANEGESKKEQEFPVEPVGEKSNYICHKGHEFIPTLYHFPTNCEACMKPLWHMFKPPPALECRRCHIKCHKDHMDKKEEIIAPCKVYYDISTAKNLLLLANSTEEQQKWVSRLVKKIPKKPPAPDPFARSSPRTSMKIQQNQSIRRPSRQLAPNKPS

PARP2, sequence (Q9UGN5 whole entry): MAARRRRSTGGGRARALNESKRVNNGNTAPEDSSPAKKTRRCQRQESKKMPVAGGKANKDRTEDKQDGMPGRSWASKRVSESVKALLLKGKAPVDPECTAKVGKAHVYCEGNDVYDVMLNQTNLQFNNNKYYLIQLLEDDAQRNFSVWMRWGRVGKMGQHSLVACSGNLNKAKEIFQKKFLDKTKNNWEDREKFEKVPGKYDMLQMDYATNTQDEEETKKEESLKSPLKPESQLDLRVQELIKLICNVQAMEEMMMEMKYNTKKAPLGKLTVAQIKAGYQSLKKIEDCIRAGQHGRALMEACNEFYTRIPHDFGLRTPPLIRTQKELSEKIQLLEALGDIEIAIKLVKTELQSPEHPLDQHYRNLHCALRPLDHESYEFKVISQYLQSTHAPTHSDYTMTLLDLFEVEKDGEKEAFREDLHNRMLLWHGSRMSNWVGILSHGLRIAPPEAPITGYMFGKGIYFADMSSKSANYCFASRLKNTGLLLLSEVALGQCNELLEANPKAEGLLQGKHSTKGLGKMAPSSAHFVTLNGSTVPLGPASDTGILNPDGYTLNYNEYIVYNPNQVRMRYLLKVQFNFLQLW

SMILES	IC50 (PARP2) [µM]	inhibition at 10 µM (ROCK2) [%]
O=S(=O)(c1cccc2c(O)nccc12)N1CCCNCC1 [compound 4, hydroxyfasudil]	35.1	–
O=C(COc1cccc2c(=O)[nH]ccc12)c1ccccc1 [compound 6, UPF 1069]	–	20.5 ± 0.4
